From PMC8194028, “Engineering and characterization of human β-defensin-3 and its analogues and microcin J25 peptides against Mannheimia haemolytica and bovine neutrophils” (Veterinary Research, 2021)
Converted amounts (≈) assume the structure as drawn. Like-named read-outs stand apart in the source and are kept apart here. Positions of bridges follow the written chain, without caps; N, C: chain ends. Residues, ends and D or L forms follow the SMILES beside them. No end group written: not given here.

Tested on: M. haemolytica-A1
Type: cell-based, Mannheimia haemolytica
Conditions: for No. of CFU: one of three experiments
Protocol: Wild-type HBD3, its analogues, and MccJ25 were tested against M. haemolytica-A1 using optical density method and colony count assay. Briefly, an aliquot (5 µL) from bacteria suspension stored at −80 °C was put in 5 mL BHI broth at 37 °C for 18 h. An aliquot (10 µL) from this overnight culture was added to fresh BHI broth and incubated at 37 °C for a further 5 h to obtain mid-log phase bacteria. The culture was then centrifuged for 10 min at 800 g at 4 °C. The supernatant was discarded and the bacterial pellet was resuspended in cold, sterile sodium phosphate buffer (SPB) and washed again at 800g for 10 min at 4 °C. The pellet was resuspended in 5 mL SPB. To calculate the number of CFU/mL in the 5 h culture, six successive tenfold dilutions were made. From the last dilution 100 µL was plated in duplicate on petri dishes containing BHI agar and incubated for 24 h. After 24 h the colonies were counted in the two petri dishes and then averaged. Total number of colonies was the average number of colonies multiplied by the dilution factor.
All assays were carried out in sterile 96-well polypropylene flat-bottomed plates using a broth microdilution method. Two-fold serial dilutions of peptide were made in SPB, and 50 µL of each concentration of peptide was added to the wells of the assay plate. […] Positive control wells contained 50 µL of the bacteria with 50 µL of 64 µg/mL ampicillin and negative control wells contained 50 µL of SPB and 50 µL bacterial suspension. Sterility control well contained 100 µL BHI broth to test and ensure that broth was not contaminated.
The plates were sealed with aluminum foil and were incubated at 37 °C for 2 h then 50 µL of the contents of the well were pipetted on BHI agar plates and incubated for 24 h. The bactericidal activity was expressed as the MBC which is the concentration at which 99.9% of the colonies are killed and the Lethal dose 50 (LD50) at which 50% or more bacteria are killed. All experiments were run in triplicates.
Peptides HBD3, its analogues and Mccj25 were assessed for Minimum bactericidal concentration (MBC). […] All the peptides have shown intermediate to potent killing activity towards M. haemolytica (Figures 2, 3). […] However, some published studies have taken final inoculum in the range of 10^4–10^5 cfu/mL [28].

## CC[C@H](C)[C@H](NC(=O)CNC(=O)[C@@H](NC(=O)[C@H](Cc1ccccc1)NC(=O)[C@H](Cc1ccc(O)cc1)NC(=O)[C@@H]1CCC(=O)NCC(=O)NCC(=O)N[C@@H](C)C(=O)NCC(=O)N[C@@H](Cc2c[nH]cn2)C(=O)N[C@@H](C(C)C)C(=O)N2CCC[C@H]2C(=O)N1)C(C)C)C(=O)NCC(=O)N[C@H](C(=O)N1CCC[C@H]1C(=O)N[C@H](C(=O)N[C@@H](CO)C(=O)N[C@@H](Cc1ccccc1)C(=O)N[C@@H](Cc1ccc(O)cc1)C(=O)NCC(=O)O)[C@@H](C)CC)[C@@H](C)O [MccJ25, Microcin J25] (GGAGHVPEYFVGIGTPISFYG-OH; lactam N-8 (inferred); C-terminus assumed)
Concentration at which 99.9% of the CFU in the final inoculum are killed, 2 h at 37 °C in SPB/BHI, then plated on BHI agar 24 h, final inoculum 1 × 10^5 to 1 × 10^6 cfu/mL, triplicates
  MBC: 100 µg/mL (≈ 47.5 µM)
Lethal dose for ≥ 50% of bacteria, 2 h at 37 °C, then plated 24 h, final inoculum 1 × 10^5 to 1 × 10^6 cfu/mL, triplicates
  LD50: 6.3 µg/mL
Peptide 0.8 μg/mL, well row A (duplicate 1), final inoculum 5 × 10^5 cfu/mL
  No. of CFU: >400 CFU
Peptide 0.8 μg/mL, well row B (duplicate 2), final inoculum 5 × 10^5 cfu/mL
  No. of CFU: >400 CFU
Peptide 1.6 μg/mL, well row A (duplicate 1), final inoculum 5 × 10^5 cfu/mL
  No. of CFU: >400 CFU
Peptide 1.6 μg/mL, well row B (duplicate 2), final inoculum 5 × 10^5 cfu/mL
  No. of CFU: >400 CFU
Peptide 3.1 μg/mL, well row A (duplicate 1), final inoculum 5 × 10^5 cfu/mL
  No. of CFU: >400 CFU
Peptide 3.1 μg/mL, well row B (duplicate 2), final inoculum 5 × 10^5 cfu/mL
  No. of CFU: >400 CFU
Peptide 6.3 μg/mL, well row A (duplicate 1), final inoculum 5 × 10^5 cfu/mL
  No. of CFU: 289 CFU
Peptide 6.3 μg/mL, well row B (duplicate 2), final inoculum 5 × 10^5 cfu/mL
  No. of CFU: 261 CFU
Peptide 12.5 μg/mL, well row A (duplicate 1), final inoculum 5 × 10^5 cfu/mL
  No. of CFU: 211 CFU
Peptide 12.5 μg/mL, well row B (duplicate 2), final inoculum 5 × 10^5 cfu/mL
  No. of CFU: 253 CFU
Peptide 25.0 μg/mL, well row A (duplicate 1), final inoculum 5 × 10^5 cfu/mL
  No. of CFU: 314 CFU
Peptide 25.0 μg/mL, well row B (duplicate 2), final inoculum 5 × 10^5 cfu/mL
  No. of CFU: 310 CFU
Peptide 50.0 μg/mL, well row A (duplicate 1), final inoculum 5 × 10^5 cfu/mL
  No. of CFU: 328 CFU
Peptide 50.0 μg/mL, well row B (duplicate 2), final inoculum 5 × 10^5 cfu/mL
  No. of CFU: 230 CFU
Peptide 100.0 μg/mL, well row A (duplicate 1), final inoculum 5 × 10^5 cfu/mL, 2 h 37 °C, 50 μL plated, 24 h
  No. of CFU: 211 CFU
Peptide 100.0 μg/mL, well row B (duplicate 2), final inoculum 5 × 10^5 cfu/mL
  No. of CFU: 275 CFU

## RGRKVVRRKK-OH [HBD3 10AA analogue]
2 h
  MBC: 6.3 µg/mL
18 h
  LD50: ≥ 3.1 µg/mL
Peptide 3.1 μg/mL, well row A (duplicate 1), final inoculum 10^4 cfu/mL
  No. of CFU: 7 CFU
Peptide 3.1 μg/mL, well row B (duplicate 2), final inoculum 10^4 cfu/mL
  No. of CFU: 2 CFU
Peptide 6.3 μg/mL, well row A (duplicate 1), final inoculum 10^4 cfu/mL
  No. of CFU: 4 CFU
Peptide 6.3 μg/mL, well row B (duplicate 2), final inoculum 10^4 cfu/mL
  No. of CFU: 1 CFU
Peptide 12.5 μg/mL, well row A (duplicate 1), final inoculum 10^4 cfu/mL
  No. of CFU: 4 CFU
Peptide 12.5 μg/mL, well row B (duplicate 2), final inoculum 10^4 cfu/mL
  No. of CFU: 6 CFU
Peptide 25.0 μg/mL, well row A (duplicate 1), final inoculum 10^4 cfu/mL
  No. of CFU: 4 CFU
Peptide 25.0 μg/mL, well row B (duplicate 2), final inoculum 10^4 cfu/mL
  No. of CFU: 3 CFU
Peptide 50.0 μg/mL, well row A (duplicate 1), final inoculum 10^4 cfu/mL
  No. of CFU: 4 CFU
Peptide 50.0 μg/mL, well row B (duplicate 2), final inoculum 10^4 cfu/mL
  No. of CFU: 1 CFU
Peptide 100.0 μg/mL, well row A (duplicate 1), final inoculum 10^4 cfu/mL
  No. of CFU: 0 CFU
Peptide 100.0 μg/mL, well row B (duplicate 2), final inoculum 10^4 cfu/mL
  No. of CFU: 0 CFU
